# Test results: patent publication US20240092835A1, “NOVEL PEPTIDES CAPABLE OF ALTERING NK CELL ACTIVITY” (Massachusetts Institute of Technology, priority 2022, published 2024)
# Experiments:
# [1] = tested on: NKG2A+/NKG2C− NK cells; assay: NK cell activation markers in NKG2A+/NKG2C- NK cells incubated with peptide and K562 expressing HLA-E (inhibition); format: cell-based, human; details: for percentage of CCL3+ NK cells / percentage of CD107a+ NK cells / percentage of IFNG+ NK cells / percentage of TNF+ NK cells: NKG2A+/NKG2C- NK cells, K562/HLA-E
# Method: (§1) A human immortalized myelogenous leukemia cell line (K562), which expresses HLA-E was incubated with novel peptides (Table 1) derived from the human proteome or human cytomegalovirus proteome. […] Controls assessments were also performed using NKG2A−/NKG2C− cells (Tables 10-13). Inhibition was indicated by a decrease in percent cells positive for cell surface markers, while activation was indicated by an increase in percent cells positive for cell surface markers.
# [2] = tested on: NKG2A−/NKG2C+ NK cells; assay: NK cell activation markers in NKG2A-/NKG2C+ NK cells incubated with peptide and K562 expressing HLA-E (activation); format: cell-based, human; details: for effect on NKG2A−/NKG2C+ NK cell activation (in words): K562 expressing HLA-E, CD107a, IFNG, TNF, CCL3; for percentage of CCL3+ NK cells / percentage of CD107+ NK cells / percentage of IFNG+ NK cells / percentage of TNF+ NK cells: NKG2A-/NKG2C+ NK cells, K562/HLA-E
# Method: as §1
# [3] = tested on: NKG2A−/NKG2C− NK cells; assay: NK cell activation markers in control NKG2A-/NKG2C- NK cells incubated with peptide and K562 expressing HLA-E; format: cell-based, human
# Method: as §1
# [4] = molecular target: T1, HLA-E (Homo sapiens, UniProt P13747); assay: HLA-E surface stabilization assay with RMA-S/HLA-E cells; format: cell-based; details: 30 μM peptide, 16 hours, anti-HLA-E antibody
# T1 construct: expressed in transfected cells; host or cells: RMA-S/HLA-E cells (antigen processing-defective lymphoma cell line)
# Method: HLA-E surface expression was assessed by measuring geometric mean fluorescence intensity (GeoMFI) in RMA-S cells following immunofluorescence staining with an anti-HLA-E antibody (Table 14). Increased GeoMFI was indicative of increased HLA-E surface expression stability following novel peptide exposures (FIG. 3).
# T1 sequence (P13747 22-358): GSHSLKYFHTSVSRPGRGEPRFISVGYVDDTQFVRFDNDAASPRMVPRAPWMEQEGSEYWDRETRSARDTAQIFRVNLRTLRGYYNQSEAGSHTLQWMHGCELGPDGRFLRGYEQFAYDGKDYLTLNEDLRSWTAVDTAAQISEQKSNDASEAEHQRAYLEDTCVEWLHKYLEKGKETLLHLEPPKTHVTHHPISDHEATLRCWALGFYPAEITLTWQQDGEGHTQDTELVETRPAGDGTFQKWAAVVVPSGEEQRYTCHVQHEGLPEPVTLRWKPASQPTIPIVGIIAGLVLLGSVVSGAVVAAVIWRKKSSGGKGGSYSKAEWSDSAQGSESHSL
# T1 sequence (P61769 21-119 partner): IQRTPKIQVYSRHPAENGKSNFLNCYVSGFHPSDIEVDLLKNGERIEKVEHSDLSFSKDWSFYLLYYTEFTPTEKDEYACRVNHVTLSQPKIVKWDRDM
sequence,measurement,setting,value
"TLPERTLYL [human7, peptide ECEL1 269-277 derived from the human proteome]",effect on NKG2A+/NKG2C− NK cell inhibition (in words),"[1]; K562 expressing HLA-E, CD107a, IFNG, TNF, CCL3",strong inhibitory
same,percentage of CCL3+ NK cells,[1]; Trial 1,1.37%
same,percentage of CD107a+ NK cells,[1]; Trial 1,0.52%
same,percentage of IFNG+ NK cells,[1]; Trial 1,0.13%
same,percentage of TNF+ NK cells,[1]; Trial 1,0.05%
same,percentage of CCL3+ NK cells,[1]; Trial 2,1.85%
same,percentage of CD107a+ NK cells,[1]; Trial 2,0.72%
same,percentage of IFNG+ NK cells,[1]; Trial 2,0.21%
same,percentage of TNF+ NK cells,[1]; Trial 2,0.11%
same,percentage of CCL3+ NK cells,[1]; Trial 3,1.62%
same,percentage of CD107a+ NK cells,[1]; Trial 3,0.59%
same,percentage of IFNG+ NK cells,[1]; Trial 3,0.49%
same,percentage of TNF+ NK cells,[1]; Trial 3,0.1%
same,percentage of CCL3+ NK cells,[1]; Trial 4,0.64%
same,percentage of CD107a+ NK cells,[1]; Trial 4,0.71%
same,percentage of IFNG+ NK cells,[1]; Trial 4,0.16%
same,percentage of TNF+ NK cells,[1]; Trial 4,0.08%
same,percentage of CCL3+ NK cells,[1]; Trial 5,1.26%
same,percentage of CD107a+ NK cells,[1]; Trial 5,0.64%
same,percentage of IFNG+ NK cells,[1]; Trial 5,0.28%
same,percentage of TNF+ NK cells,[1]; Trial 5,0.18%
same,percentage of CCL3+ NK cells,[1]; Trial 6,2.68%
same,percentage of CD107a+ NK cells,[1]; Trial 6,1.96%
same,percentage of IFNG+ NK cells,[1]; Trial 6,0.67%
same,percentage of TNF+ NK cells,[1]; Trial 6,0.38%
same,effect on NKG2A−/NKG2C+ NK cell activation (in words),[2]; listed as SEQ ID NO. 11,strong activating effects
same,effect on NKG2A−/NKG2C+ NK cell activation (in words),[2]; listed as h7,strong inhibitory and activating effects
same,percentage of CCL3+ NK cells,[2]; Trial 1,77%
same,percentage of CD107+ NK cells,[2]; Trial 1,76.2%
same,percentage of IFNG+ NK cells,[2]; Trial 1,66.6%
same,percentage of TNF+ NK cells,[2]; Trial 1,54.5%
same,percentage of CCL3+ NK cells,[2]; Trial 2,92.4%
same,percentage of CD107+ NK cells,[2]; Trial 2,89.5%
same,percentage of IFNG+ NK cells,[2]; Trial 2,87.3%
same,percentage of TNF+ NK cells,[2]; Trial 2,79.9%
same,percentage of CCL3+ NK cells,[2]; Trial 3,87.5%
same,percentage of CD107+ NK cells,[2]; Trial 3,87.7%
same,percentage of IFNG+ NK cells,[2]; Trial 3,79.8%
same,percentage of TNF+ NK cells,[2]; Trial 3,70.1%
same,percentage of CCL3+ NK cells,[2]; Trial 4,61.5%
same,percentage of CD107+ NK cells,[2]; Trial 4,63.2%
same,percentage of IFNG+ NK cells,[2]; Trial 4,54.1%
same,percentage of TNF+ NK cells,[2]; Trial 4,47.8%
same,percentage of CCL3+ NK cells,[2]; Trial 5,77.3%
same,percentage of CD107+ NK cells,[2]; Trial 5,76.5%
same,percentage of IFNG+ NK cells,[2]; Trial 5,70%
same,percentage of TNF+ NK cells,[2]; Trial 5,66.1%
same,percentage of CCL3+ NK cells,[2]; Trial 6,55.6%
same,percentage of CD107+ NK cells,[2]; Trial 6,55.3%
same,percentage of IFNG+ NK cells,[2]; Trial 6,45.4%
same,percentage of TNF+ NK cells,[2]; Trial 6,37.8%
same,percentage CCL3+ NK cells,[3]; Trial 1,30.7%
same,percentage CD107+ NK cells,[3]; Trial 1,21.8%
same,percentage TNF+ NK cells,[3]; Trial 1,4.13%
same,percentage of IFNG+ NK cells,[3]; Trial 1,13.3%
same,percentage CCL3+ NK cells,[3]; Trial 2,49.5%
same,percentage CD107+ NK cells,[3]; Trial 2,27.4%
same,percentage TNF+ NK cells,[3]; Trial 2,7.88%
same,percentage of IFNG+ NK cells,[3]; Trial 2,23.4%
same,percentage CCL3+ NK cells,[3]; Trial 3,47%
same,percentage CD107+ NK cells,[3]; Trial 3,41.8%
same,percentage TNF+ NK cells,[3]; Trial 3,14.2%
same,percentage of IFNG+ NK cells,[3]; Trial 3,34.9%
same,percentage CCL3+ NK cells,[3]; Trial 4,27.4%
same,percentage CD107+ NK cells,[3]; Trial 4,24%
same,percentage TNF+ NK cells,[3]; Trial 4,7.92%
same,percentage of IFNG+ NK cells,[3]; Trial 4,16.4%
same,percentage CCL3+ NK cells,[3]; Trial 5,22.9%
same,percentage CD107+ NK cells,[3]; Trial 5,17.2%
same,percentage TNF+ NK cells,[3]; Trial 5,5.21%
same,percentage of IFNG+ NK cells,[3]; Trial 5,12.7%
same,percentage CCL3+ NK cells,[3]; Trial 6,22.6%
same,percentage CD107+ NK cells,[3]; Trial 6,20.5%
same,percentage TNF+ NK cells,[3]; Trial 6,4.34%
same,percentage of IFNG+ NK cells,[3]; Trial 6,10.9%
same,HLA-E surface expression stability (GeoMFI),[4]; Trial 1,3203 GeoMFI
same,HLA-E surface expression stability (GeoMFI),[4]; Trial 2,3535 GeoMFI
same,HLA-E surface expression stability (GeoMFI),[4]; Trial 3,3903 GeoMFI
same,HLA-E surface expression stability (GeoMFI),[4]; Trial 4,4464 GeoMFI
